# Source: patent US20250049970A1, “DLL3 TARGETING PEPTIDES AND CONSTRUCTS THEREOF” (MARIANA ONCOLOGY INC., priority 2023, published 2025)
# *1 amine or outer side, *2 acyl side, *3 side chain or, on linkers, in order; H or OH if unused. Where a SMILES comes first, the peptide text is derived from it. Bridges are numbered along the chain shown (N, C = ends). Side-chain parts run from the residue outwards. [ ]: non-standard residue; d: D form. The star is where a group is joined. X9 = CSCC[C@H](NC(=O)c1ccc(CNC(=O)CN2CCN(CC(=O)O)CCN(CC(=O)O)CCN(CC(=O)O)CC2)cc1)C(=O)N[C@H](C(=O)N[C@@H](CCCCN*)C(=O)O)C(C)C; Ala(piperidin-4-yl) = O=C([C@H](CC1CCN([*:3])CC1)N[*:1])[*:2]; DOTA = O=C(O)CN1CCN(CC(=O)O)CCN(CC(=O)*)CCN(CC(=O)O)CC1; X3 = O=C([C@H](CC1CCN(CC(=O)[*:3])CC1)N[*:1])[*:2]; Trp(5-OH) = N[C@@H](Cc1c[nH]c2ccc(O)cc12)C(=O)O; Trp(7-aza) = N[C@@H](Cc1c[nH]c2ncccc12)C(=O)O; Trp(1-Me) = Cn1cc(C[C@H](N)C(=O)O)c2ccccc21; 2Nal = N[C@@H](Cc1ccc2ccccc2c1)C(=O)O; NMetBuAla = CN[C@@H](CC(C)(C)C)C(=O)O; Gly(4-THP) = N[C@H](C(=O)O)C1CCOCC1; Ethylenediamine = C(CN[*:2])N[*:1]; X4 = O=C(C(CC1CCNCC1)N[*:1])[*:2]; Chg = N[C@H](C(=O)O)C1CCCCC1; CH2 = C([*:1])[*:2]
# Target: T1, DLL3 (Homo sapiens, UniProt Q9NYJ7)
# T1 sequence (Q9NYJ7 27-618): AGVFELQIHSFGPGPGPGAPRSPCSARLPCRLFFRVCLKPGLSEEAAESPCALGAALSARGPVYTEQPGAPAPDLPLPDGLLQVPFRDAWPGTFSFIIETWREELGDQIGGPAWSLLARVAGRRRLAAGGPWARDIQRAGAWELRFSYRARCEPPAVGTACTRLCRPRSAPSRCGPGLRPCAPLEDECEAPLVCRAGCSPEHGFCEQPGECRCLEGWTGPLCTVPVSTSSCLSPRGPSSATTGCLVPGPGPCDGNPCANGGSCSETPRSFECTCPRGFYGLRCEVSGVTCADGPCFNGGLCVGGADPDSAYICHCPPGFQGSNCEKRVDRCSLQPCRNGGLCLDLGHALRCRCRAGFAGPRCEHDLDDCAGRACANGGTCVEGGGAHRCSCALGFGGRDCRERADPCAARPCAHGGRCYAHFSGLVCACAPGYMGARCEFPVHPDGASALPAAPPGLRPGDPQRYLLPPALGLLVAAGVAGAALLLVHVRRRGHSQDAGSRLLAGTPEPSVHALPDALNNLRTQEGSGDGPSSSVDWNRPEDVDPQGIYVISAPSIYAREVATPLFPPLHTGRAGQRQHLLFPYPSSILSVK
# Assay: SPR KD, biotinylated human DLL3 on streptavidin chip (Table 8)
# Parameters: biotin (biotinylated)
# Details: SPR KD, biotinylated human DLL3 on streptavidin sensor chip, 25° C., 1:1 binding model
# Source text: Biotinylated target ligand human DLL3 was immobilized on a streptavidin sensor chip. A reference surface was set up for nonspecific binding and refractive index changes. […] Sensorgram curves were fitted with 1:1 binding model, and affinity and kinetic parameters were obtained using Biacore Insight evaluation 4.0. software.
row,SMILES,Kd
1,"CC[C@H](C)[C@H](NC(=O)[C@@H](NC(=O)[C@H](Cc1c[nH]c2ccccc12)NC(C)=O)[C@@H](C)O)C(=O)N[C@H]1CSSC[C@@H](C(=O)N[C@@H](Cc2c[nH]c3ccccc23)C(=O)N2CCC[C@H]2C(=O)N[C@H](CCCCNC(=O)CN2CCN(CC(=O)O)CCN(CC(=O)O)CCN(CC(=O)O)CC2)C(N)=O)NC(=O)[C@H](CC(=O)O)NC(=O)[C@H](CCCCNC(=O)CN2CCN(CC(=O)O)CCN(CC(=O)O)CCN(CC(=O)O)CC2)NC(=O)[C@H](Cc2ccc3ccccc3c2)NC(=O)[C@H](CC(N)=O)NC(=O)[C@H](CC(N)=O)NC1=O [compound 253, Ac-W-T-I-C(3)-N-N-(2Nal)-Lys(DOTA)-D-C(3)-W-P-[D-Lys(DOTA)]-NH2] (Ac-WTICNN[2Nal]K(DOTA)DCWP[dK](DOTA)-NH2; disulfide 4-10)",< 1 nM

# Same assay, conditions: biotinylated human DLL3 on streptavidin sensor chip, 25° C., 1:1 binding model; read-out: SPR KD
row,Kd,SMILES
1,10 to 100 nM,"CC[C@H](C)[C@H](NC(=O)[C@@H](NC(=O)[C@H](Cc1c[nH]c2ccc(O)cc12)NC(C)=O)[C@@H](C)O)C(=O)N[C@H]1CSSC[C@@H](C(=O)N[C@@H](Cc2c[nH]c3ccccc23)C(=O)N2CCC[C@H]2C(N)=O)NC(=O)[C@H](CC(=O)O)NC(=O)[C@H](Cc2c[nH]cn2)NC(=O)[C@H](Cc2c[nH]c3ccccc23)NC(=O)[C@H](CC(N)=O)NC(=O)[C@H](CC(N)=O)NC1=O [compound 27, Ac-(5OH-W)-T-I-C(3)-N-N-W-H-D-C(3)-W-P-CONH2] (Ac-[Trp(5-OH)]TICNNWHDCWP-NH2; disulfide 4-10)"
2,10 to 100 nM,"CC[C@H](C)[C@H](NC(=O)[C@@H](NC(=O)[C@H](Cc1cn(C)c2ccccc12)NC(=O)[C@H](CCSC)NC(C)=O)[C@@H](C)O)C(=O)N[C@H]1CSSC[C@@H](C(=O)N[C@@H](Cc2c[nH]c3ccccc23)C(=O)N2CCC[C@H]2C(N)=O)NC(=O)[C@H](CC(=O)O)NC(=O)[C@H](Cc2cnc[nH]2)NC(=O)[C@H](Cc2c[nH]c3ccccc23)NC(=O)[C@H](CC(N)=O)NC(=O)[C@H](CC(N)=O)NC1=O [compound 41, Ac-M-(1Me-W)-T-I-C(3)-N-N-W-H-D-C(3)-W-P-CONH2] (Ac-M[Trp(1-Me)]TICNNWHDCWP-NH2; disulfide 5-11)"
3,1 to 10 nM,"CC[C@H](C)[C@H](NC(=O)[C@@H](NC(=O)[C@H](Cc1c[nH]c2ccccc12)NC(=O)[C@H](C)NC(C)=O)[C@@H](C)O)C(=O)N[C@H]1CSSC[C@@H](C(=O)N[C@@H](Cc2c[nH]c3ccccc23)C(=O)N2CCC[C@H]2C(N)=O)NC(=O)[C@H](CC(=O)O)NC(=O)[C@H](Cc2cnc[nH]2)NC(=O)[C@H](Cc2c[nH]c3ccccc23)NC(=O)[C@H](CC(N)=O)NC(=O)[C@H](CC(N)=O)NC1=O [compound 11, Ac-(L-Ala)-W-T-I-C(3)-N-N-W-H-D-C(3)-W-P-CONH2] (Ac-AWTICNNWHDCWP-NH2; disulfide 5-11)"
4,1 to 10 nM,"CC[C@H](C)[C@H](NC(=O)[C@@H](NC(=O)[C@H](Cc1c[nH]c2ccccc12)NC(C)=O)[C@@H](C)O)C(=O)N[C@H]1CSSC[C@@H](C(=O)N[C@@H](Cc2c[nH]c3ncccc23)C(=O)N2CCC[C@H]2C(N)=O)NC(=O)[C@H](CC(=O)O)NC(=O)[C@H](Cc2c[nH]cn2)NC(=O)[C@H](Cc2c[nH]c3ccccc23)NC(=O)[C@H](CC(N)=O)NC(=O)[C@H](CC(N)=O)NC1=O [compound 51, Ac-W-T-I-C(3)-N-N-W-H-D-C(3)-(7Aza-W)-P-CONH2] (Ac-WTICNNWHDC[Trp(7-aza)]P-NH2; disulfide 4-10)"

# The remaining lines, values behind:
row,SMILES,Kd
1,"CSCC[C@H](NC(=O)c1ccc(CNC(=O)CN2CCN(CC(=O)O)CCN(CC(=O)O)CCN(CC(=O)O)CC2)cc1)C(=O)N[C@H](C(=O)N[C@@H](CCCCNC(=O)CC[C@@H]1NC(=O)[C@H](Cc2ccc3ccccc3c2)NC(=O)[C@H](CC(N)=O)NC(=O)[C@H](CC2CCNCC2)NC(=O)[C@@H](NC(=O)[C@@H](NC(=O)[C@@H](NC(=O)[C@H](Cc2c[nH]c3ccccc23)NC(C)=O)[C@@H](C)O)C2CCOCC2)CSSC[C@@H](C(=O)N[C@@H](Cc2c[nH]c3ccccc23)C(=O)N2CCC[C@H]2C(N)=O)NC(=O)[C@H](CC(=O)O)NC1=O)C(=O)O)C(C)C [compound 378, Ac-W-T-(THPG)-C(3)-[3-(4-piperidinyl)-Ala]-N-(2Nal)-[Glu(gLys(OH)-Val-Met-AmBz-DOTA)]-D-C(3)-W-P-CONH2] (Ac-WT[Gly(4-THP)]C[Ala(piperidin-4-yl)]N[2Nal]E(X9)DCWP-NH2; disulfide 4-10)",1 to 10 nM
2,"CC(=O)N[C@@H](Cc1c[nH]c2ccccc12)C(=O)N[C@H](C(=O)N[C@H](C(=O)N[C@H]1CSSC[C@@H](C(=O)N[C@@H](Cc2c[nH]c3ccccc23)C(=O)N2CCC[C@H]2C(N)=O)NC(=O)[C@H](CC(=O)O)NC(=O)[C@H](CCCCNC(=O)CN2CCN(CC(=O)O)CCN(CC(=O)O)CCN(CC(=O)O)CC2)NC(=O)[C@H](Cc2ccc3ccccc3c2)NC(=O)[C@H](CC(N)=O)NC(=O)C(CC2CCNCC2)NC1=O)C1CCOCC1)[C@@H](C)O (stereo partly drawn) [compound 319, Ac-W-T-(THPG)-C(3)-[3-(4-piperidinyl)-Ala]-N-(2Nal)-Lys(DOTA)-D-C(3)-W-P-CONH2] (Ac-WT[Gly(4-THP)]C[X4]N[2Nal]K(DOTA)DCWP-NH2; disulfide 4-10)",< 1 nM
3,"CC[C@H](C)[C@H](NC(=O)[C@@H](NC(=O)[C@H](Cc1c[nH]c2ccccc12)NC(=O)[C@H](CCSC)NC(C)=O)[C@@H](C)O)C(=O)N[C@H]1CSSC[C@@H](C(=O)N[C@@H](Cc2c[nH]c3ccccc23)C(=O)N2CCC[C@H]2C(N)=O)NC(=O)[C@H](CC(=O)O)NC(=O)[C@H](Cc2cnc[nH]2)NC(=O)[C@H](Cc2c[nH]c3ccccc23)NC(=O)[C@H](CC(N)=O)NC(=O)[C@@H](C)NC1=O [compound 7, Ac-M-W-T-I-C(3)-(D-Ala)-N-W-H-D-C(3)-W-P-CONH2] (Ac-MWTIC[dA]NWHDCWP-NH2; disulfide 5-11)",10 to 100 nM
4,"CCCCCCCCCCCCCCCC(=O)N[C@@H](CCC(=O)NCCOCCOCCOCCOCCOCCOCCOCCOCCOCCOCCOCCOCCOCCOCCOCCOCCOCCOCCOCCOCCOCCOCCOCCOCCC(=O)NCCCC[C@H](NC(=O)CN1CCC(C[C@@H]2NC(=O)[C@@H](NC(=O)[C@H](CC(C)(C)C)N(C)C(=O)[C@@H](NC(=O)[C@H](Cc3c[nH]c4ccccc34)NC(C)=O)[C@@H](C)O)CSCSC[C@@H](C(=O)N[C@@H](Cc3c[nH]c4ccccc34)C(=O)N3CCC[C@H]3C(N)=O)NC(=O)[C@H](CC(=O)O)NC(=O)[C@H](CCCCNC(=O)CN3CCN(CC(=O)O)CCN(CC(=O)O)CCN(CC(=O)O)CC3)NC(=O)[C@H](Cc3ccc4ccccc4c3)NC(=O)[C@H](CC(N)=O)NC2=O)CC1)C(=O)O)C(=O)O [compound 450, Ac-W-T-(NMe-tBuAla)-C(1)-[PipA(acetic-Lys-PEG24-gE-palmitoyl)]-N-(2Nal)-Lys(DOTA)-D-C(1)-W-P-CONH2]",< 1 nM
5,"CSCC[C@H](NC(=O)c1ccc(CNC(=O)CN2CCN(CC(=O)O)CCN(CC(=O)O)CCN(CC(=O)O)CC2)cc1)C(=O)N[C@H](C(=O)N[C@@H](CCCCNC(=O)CC[C@@H]1NC(=O)[C@H](Cc2ccc3ccccc3c2)NC(=O)[C@H](CC(N)=O)NC(=O)[C@H](CC2CCNCC2)NC(=O)[C@@H](NC(=O)[C@@H](NC(=O)[C@@H](NC(=O)[C@H](Cc2c[nH]c3ccccc23)NC(C)=O)[C@@H](C)O)C2CCCCC2)CSSC[C@@H](C(=O)N[C@@H](Cc2c[nH]c3ccccc23)C(=O)N2CCC[C@H]2C(N)=O)NC(=O)[C@H](CC(=O)O)NC1=O)C(=O)O)C(C)C [compound 381, Ac-W-T-(Chg)-C(3)-[3-(4-piperidinyl)-Ala]-N-(2Nal)-[Glu(gLys(OH)-Val-Met-AmBz-DOTA)]-D-C(3)-W-P-CONH2] (Ac-WT[Chg]C[Ala(piperidin-4-yl)]N[2Nal]E(X9)DCWP-NH2; disulfide 4-10)",< 1 nM
6,"CC[C@H](C)[C@H](NC(=O)[C@@H](NC(=O)[C@H](Cc1c[nH]c2ccccc12)NC(=O)[C@H](CCSC)NC(C)=O)[C@@H](C)O)C(=O)N[C@H]1CSSC[C@@H](C(=O)N[C@@H](Cc2c[nH]c3ccccc23)C(=O)N[C@H](C)C(N)=O)NC(=O)[C@H](CC(=O)O)NC(=O)[C@H](Cc2cnc[nH]2)NC(=O)[C@H](Cc2c[nH]c3ccccc23)NC(=O)[C@H](CC(N)=O)NC(=O)[C@H](CC(N)=O)NC1=O [compound 10, Ac-M-W-T-I-C(3)-N-N-W-H-D-C(3)-W-(D-Ala)-CONH2] (Ac-MWTICNNWHDCW[dA]-NH2; disulfide 5-11)",100 to 300 nM
7,CC(=O)N[C@@H](Cc1c[nH]c2ccccc12)C(=O)N[C@H](C(=O)N(C)[C@@H](CC(C)(C)C)C(=O)N[C@H]1CSCSC[C@@H](C(=O)N[C@@H](Cc2c[nH]c3ccccc23)C(=O)N2CCC[C@H]2C(N)=O)NC(=O)[C@H](CC(=O)O)NC(=O)[C@H](CCCCNC(=O)CN2CCN(CC(=O)O)CCN(CC(=O)O)CCN(CC(=O)O)CC2)NC(=O)[C@H](Cc2ccc3ccccc3c2)NC(=O)[C@H](CC(N)=O)NC(=O)[C@H](CC2CCN(CC(=O)NCCNC(=O)CN3CCN(CC(=O)O)CCN(CC(=O)O)CCN(CC(=O)O)CC3)CC2)NC1=O)[C@@H](C)O [compound 449] (Ac-WT[NMetBuAla]C[X3]([Ethylenediamine-DOTA])N[2Nal]K(DOTA)DCWP-NH2; linker 4-10 via CH2),< 1 nM
